Assay [1] concerns Plasmodium falciparum strain 3D7A. In words: [3H] hypoxanthine incorporation IC50 assay, P. falciparum 3D7A. It is filed as cell-based. The note with it: 48 hours incubation; for IC50: Plasmodium falciparum. The protocol:
(§1) Plasmodium falciparum strains 3D7A and W2.
(§2) The culture medium comprised RPMI 1640 with 25 mM HEPES, sodium bicarbonate and glutamine (GIBCO™ cat. ref.: 52400), supplemented with 10% of pooled human sera AB (Bioreclamation HMSRM-AB)) and HT supplement (0.15 mM hypoxanthine and 24 μM thymidine), (GIBCO™ cat. ref.: 41065). Human sera were decomplemented 30 min. at 56° C., aliquoted and stored frozen at −20° C. until use in this culture medium.
(§3) Red blood cells AB—stock suspensions were prepared from whole blood bags coming from incomplete blood donation, provided by the Spanish Red Cross (<25 days after sampling). This “whole blood” was aliquoted and stored at 4° C.
(§4) To prepare red blood cells for the assay, the whole blood was centrifuged and washed 3 times with RPMI without serum. The upper phase, containing white blood cells was removed. The washed red blood cells were kept as a 50% suspension in complete medium. The prepared cells were stored at 4° C. and were employed in the assay at any time up to 4 days after preparation.
(§5) Test compounds were dissolved at 2 mg/ml in 100% DMSO on the day of the assay. If necessary, complete dissolution was achieved by gentle heating (the mixture was heated at a temperature <37° C.) and sonication (sonication bath).
(§6) For IC50 determinations, 10 serial 2-fold dilutions were prepared in complete medium in the presence of a constant amount of DMSO. Any obvious signs of insolubility of the stock solutions in 100% DMSO or precipitation when these solutions were diluted in assay media, were recorded.
(§7) Plasmodium falciparum strains were maintained in complete medium at an hematocrit of 5% in continuous culture using a method adapted from Trager and Jensen (1, 2).
(§8) The parasitemia was calculated by counting the percentage of parasitized erythrocytes by optical microscopy. Thin films of blood were made every day from each culture flask, fixed with methanol and stained for 10 min. in Giemsa (Merck, cat. ref.: 1.09204) at 10% in buffered water pH 7.2. The glass slides were observed and counted with an optical microscope (Nikon, Eclipse E200) equipped with a 100× immersion oil objective.
(§9) The culture was maintained at an hematocrit of 5%, with a daily change of medium and was diluted when parasitemia had reached about 5%.
(§10) [^3H] Hypoxanthine incorporation assay was conducted using a method adapted from Desjardins et al. (3). The assays were performed in 96 wells flat bottom microplates.
(§11) 1. Serial dilutions of the test compounds (50 μl of a 5× solution/well) were deposited in duplicate. Compounds of this invention (Table 1) were tested in this assay. Chloroquine and Azithromycin were used as control compounds for each assay.
(§12) 3. [^3H]-Hypoxanthine (Amersham Biosciences, cat. ref.: TRK74) was added extemporaneously to the inoculum suspension at a concentration of 1 μCi/ml (equating to […]). 200 μl of the resulting suspension was distributed into each well (other than the control well H12 described below) leading to a final volume of 250 μl per well, at 1% of hematocrit and 0.4% of parasitemia/well.
(§13) 4. In each plate, 2 columns were reserved for control wells: • Column 11: Positive control wells: PRBCs with 0.2% DMSO—(i) to determine DMSO solvent effect on parasite growth (at a final concentration of 0.2%) and (ii) to compare with cultures treated with test compounds. • Column 12 (comprising wells A12-H12): • A12-D12—Background value wells: Uninfected RBCs—blank control to obtain the background reading from RBCs without parasites.
(§14) E12-G12—Solvent effect wells: PRBCs without DMSO—to determine DMSO solvent effect on PRBCs by comparing these wells with column 11 wells.
(§15) H12—Non-radioactive well: PRBCs with cold hypoxanthine—(i) to carry out a thin blood film to determine parasitemia value after incubation by microscopy and (ii) to ensure that the parasites have grown properly during the assay. […]

Assay [2] concerns Plasmodium falciparum strain W2. Description: [3H] hypoxanthine incorporation IC50 assay, P. falciparum W2. It is filed as cell-based. The settings on record: P. falciparum W2, 48 hours incubation. On the procedure: as §1, §2, §3, §4, §5, §6, §7, §8, §9, §10, §11, §12, §13, §14, §15
For a further assay, the system named is Plasmodium falciparum. The settings on record: non-immune patients, as compared to controls; cited from earlier work.
The test system of a further assay is Plasmodium cynomolgi. The note with it: rhesus monkey; cited from earlier work.
The next assay deals with Plasmodium vivax. The settings on record: non-immune patients, as compared to controls; cited from earlier work.
A further assay concerns Plasmodium berghei. The note with it: cited from earlier work.
For assay [3], the system named is Plasmodium yoelii nigeriensis. The settings on record: cited from earlier work.

Values after ≈ are worked out from the molar mass of the structure shown. A value given as a limit tells only on which side of the number the result lay.

By IC50 is commonly meant the concentration at which inhibition is half-maximal.

As to `CC[C@H]1OC(=O)[C@H](C)[C@@H](O[C@H]2C[C@@](C)(OC)[C@@H](O)[C@H](C)O2)[C@H](C)[C@@H](O[C@@H]2O[C@H](C)C[C@H](N(C)C)[C@H]2OCCCNC(=O)CNc2ccnc3ccccc23)[C@](C)(O)C[C@@H](C)CN(C)[C@H](C)[C@@H](O)[C@]1(C)O` [Example 9, 2′-O-[3-({2-[(4-quinolinyl)amino]ethanoyl}amino)propyl]-9-deoxo-9a-methyl-9a-aza-9a-homoerythromycin A], the IC50 in assay [1] is 0.1 to 0.2 mg/L (≈ 0.101 to 0.202 µM); in assay [2], at most 0.1 mg/L.

For the molecule `CC[C@H]1OC(=O)[C@H](C)[C@@H](O[C@H]2C[C@@](C)(OC)[C@@H](O)[C@H](C)O2)[C@H](C)[C@@H](O[C@@H]2O[C@H](C)C[C@H](N(C)C)[C@H]2OCCCNC(=O)CCCNc2ccnc3ccccc23)[C@](C)(O)C[C@@H](C)CN(C)[C@H](C)[C@@H](O)[C@]1(C)O` [Example 12, 2′-O-[3-({4-[(4-quinolinyl)amino]butanoyl}amino)propyl]-9-deoxo-9a-methyl-9a-aza-9a-homoerythromycin A], the IC50 is 0.2 to 1 mg/L (≈ 0.196 to 0.982 µM) in assay [1] and 0.1 to 0.2 mg/L (≈ 0.0982 to 0.196 µM) in assay [2].

As to `CC[C@H]1OC(=O)[C@H](C)[C@@H](O[C@H]2C[C@@](C)(OC)[C@@H](O)[C@H](C)O2)[C@H](C)[C@@H](O[C@@H]2O[C@H](C)C[C@H](N(C)C)[C@H]2O)[C@](C)(O)C[C@@H](C)CN(C)[C@H](C)[C@@H](O)[C@]1(C)O` [azithromycin], the “IC50 3D7A” value in assay [1] was “H, >H”. The “prophylactic efficacy for Plasmodium falciparum” value with Plasmodium falciparum is recorded as 71.6%. In assay [2], this molecule came in with an IC50 of 2.5 to 3 mg/L (≈ 3.34 to 4.01 µM). Besides, in the assay with Plasmodium cynomolgi, the “efficacy in monkey model” value is reported as “active”. Further, the “prophylactic efficacy for Plasmodium vivax” value in the assay on Plasmodium vivax is recorded as 98.9%.

`CC[C@H]1OC(=O)[C@H](C)[C@@H](O)[C@H](C)[C@@H](O[C@@H]2O[C@H](C)C[C@H](N(C)C)[C@H]2OCCCNc2ccnc3cc(Cl)ccc23)[C@](C)(O)C[C@@H](C)CN(C)[C@H](C)[C@@H](O)[C@]1(C)O` [Example 5, 2′-O-{3-[(7-Chloro-4-quinolinyl)amino]propyl}-3-O-decladinosyl-9-deoxo-9a-methyl-9a-aza-9a-homoerythromycin A]: the 50% inhibitory concentration (IC50) in assay [1] and in assay [2] was at most 0.1 mg/L throughout.

Consider `CC[C@H]1OC(=O)[C@H](C)[C@@H](O[C@H]2C[C@@](C)(OC)[C@@H](O)[C@H](C)O2)[C@H](C)[C@@H](O[C@@H]2O[C@H](C)C[C@H](N(C)C)[C@H]2OCCCNc2ccnc3ccccc23)[C@](C)(O)C[C@@H](C)CN(C)[C@H](C)[C@@H](O)[C@]1(C)O` [Example 6, 2′-O-{3-[(4-quinolinyl)amino]propyl}-9-deoxo-9a-methyl-9a-aza-9a-homoerythromycin A], for which the IC50 in assay [1] and in assay [2] was at most 0.1 mg/L throughout.

Turning to `CC[C@H]1OC(=O)[C@H](C)[C@@H](O)[C@H](C)[C@@H](O[C@@H]2O[C@H](C)C[C@H](N(C)C)[C@H]2OCCCNc2ccnc3cc(Cl)ccc23)[C@](C)(O)C[C@@H](C)CN(C)[C@H](C)[C@@H](OC(C)=O)[C@]1(C)O` [Example 4, 11-O-Acetyl-2′-O-{3-[(7-Chloro-4-quinolinyl)amino]propyl}-3-O-decladinosyl-9-deoxo-9a-methyl-9a-aza-9a-homoerythromycin A], the IC50 in assay [1] and in assay [2] was at most 0.1 mg/L each time.

midecamycinin: the “efficacy in monkey model” value in the assay with Plasmodium cynomolgi was “no efficacy”. Also, the “activity in mouse model” value (with Plasmodium berghei; in assay [3]) was “active” throughout.

On to `CC[C@H]1OC(=O)[C@H](C)[C@@H](O[C@H]2C[C@@](C)(OC)[C@@H](O)[C@H](C)O2)[C@H](C)[C@@H](O[C@@H]2O[C@H](C)C[C@H](N(C)C)[C@H]2OCCCNc2ccnc3cc(Cl)ccc23)[C@](C)(O)C[C@@H](C)CN(C)[C@H](C)[C@@H](O)[C@]1(C)O` [Example 3, 2′-O-{3-[(7-Chloro-4-quinolinyl)amino]propyl}-9-deoxo-9a-methyl-9a-aza-9a-homoerythromycin A], for which the IC50 in assay [1] and in assay [2] was at most 0.1 mg/L in each case.

In the case of `CC[C@H]1OC(=O)[C@H](C)[C@@H](O[C@H]2C[C@@](C)(OC)[C@@H](O)[C@H](C)O2)[C@H](C)[C@@H](O[C@@H]2O[C@H](C)C[C@H](N(C)C)[C@H]2OCCCNC(=O)CCCNc2ccnc3cc(Cl)ccc23)[C@](C)(O)C[C@@H](C)CN(C)[C@H](C)[C@@H](O)[C@]1(C)O` [Example 1, 2′-O-[3-({4-[(7-chloro-4-quinolinyl)amino]butanoyl}amino)propyl]-9-deoxo-9a-methyl-9a-aza-9a-homoerythromycin A], the IC50 in assay [1] and in assay [2] was at most 0.1 mg/L each time.

With `CC[C@H]1OC(=O)[C@H](C)[C@@H](O[C@H]2C[C@@](C)(OC)[C@@H](O)[C@H](C)O2)[C@H](C)[C@@H](O[C@@H]2O[C@H](C)C[C@H](N(C)C)[C@H]2OCCCNC(=O)CNc2ccnc3cc(Cl)ccc23)[C@](C)(O)C[C@@H](C)CN(C)[C@H](C)[C@@H](O)[C@]1(C)O` [Example 7, 2′-O-[3-({2-[(7-chloro-4-quinolinyl)amino]ethanoyl}amino)propyl]-9-deoxo-9a-methyl-9a-aza-9a-homoerythromycin A], the IC50 in assay [1] and in assay [2] was at most 0.1 mg/L throughout.

Consider `CC[C@H]1OC(=O)[C@H](C)[C@@H](O[C@H]2C[C@@](C)(OC)[C@@H](O)[C@H](C)O2)[C@H](C)[C@@H](O[C@@H]2O[C@H](C)C[C@H](N(C)C)[C@H]2OCCC(=O)NCCNc2ccnc3cc(Cl)ccc23)[C@](C)(O)C[C@@H](C)CN(C)[C@H](C)[C@@H](O)[C@]1(C)O` [Example 11, 2′-O-[3-({2-[(7-chloro-4-quinolinyl)amino]ethyl}amino)-3-oxopropyl]9-deoxo-9a-methyl—9a-aza-9a-homoerythromycin A], for which the IC50 in assay [1] and in assay [2] was at most 0.1 mg/L throughout.

In the case of `CC[C@H]1OC(=O)[C@H](C)[C@@H](O)[C@H](C)[C@@H](O[C@@H]2O[C@H](C)C[C@H](N(C)C)[C@H]2OCCCNC(=O)CCCNc2ccnc3cc(Cl)ccc23)[C@](C)(O)C[C@@H](C)CN(C)[C@H](C)[C@@H](O)[C@]1(C)O` [Example 2, 2′-O-[3-({4-[(7-chloro-4-quinolinyl)amino]butanoyl}amino)propyl]-3-O-decladinosyl-9-deoxo-9a-methyl-9a-aza-9a-homoerythromycin A], the IC50 in assay [1] and in assay [2] was 0.1 to 0.2 mg/L (≈ 0.112 to 0.224 µM) each time.

For `CC[C@H]1OC(=O)[C@H](C)[C@@H](O)[C@H](C)[C@@H](O[C@@H]2O[C@H](C)C[C@H](N(C)C)[C@H]2OCCCNC(=O)CNc2ccnc3cc(Cl)ccc23)[C@](C)(O)C[C@@H](C)CN(C)[C@H](C)[C@@H](O)[C@]1(C)O` [Example 8, 2′-O-[3-({2-[(7-chloro-4-quinolinyl)amino]ethanoyl}amino)propyl]-3-O-decladinosyl-9-deoxo-9a-methyl-9a-aza-9a-homoerythromycin A], the IC50 in assay [1] is at most 0.1 mg/L; in assay [2], 0.1 to 0.2 mg/L (≈ 0.115 to 0.231 µM).

Turning to `CC[C@H]1OC(=O)[C@H](C)[C@@H](O)[C@H](C)[C@@H](O[C@@H]2O[C@H](C)C[C@H](N(C)C)[C@H]2OCCCNC(=O)CNc2ccnc3ccccc23)[C@](C)(O)C[C@@H](C)CN(C)[C@H](C)[C@@H](O)[C@]1(C)O` [Example 10, 2′-O-[3-({2-[(4-quinolinyl)amino]ethanoyl}amino)propyl]-3-O-decladinosyl-9-deoxo-9a-methyl-9a-aza-9a-homoerythromycin A], the IC50 lay within 1 to 2.5 mg/L (≈ 1.2 to 3 µM) in assay [1] and 0.2 to 1 mg/L (≈ 0.24 to 1.2 µM) in assay [2].

These data come from patent US20090036388A1, “Compounds” (priority 2007, published 2009).
